Laboratory results published in article PMC6141003 (Biochimie, 2017).

Legend:
[1] = target: T1, GLUT1 (Mus musculus, UniProt P17809); experiment: dose-dependent competition of [3H]-2DG uptake in L929 fibroblasts; assay type: cell-based
T1 sequence (P17809 1-492): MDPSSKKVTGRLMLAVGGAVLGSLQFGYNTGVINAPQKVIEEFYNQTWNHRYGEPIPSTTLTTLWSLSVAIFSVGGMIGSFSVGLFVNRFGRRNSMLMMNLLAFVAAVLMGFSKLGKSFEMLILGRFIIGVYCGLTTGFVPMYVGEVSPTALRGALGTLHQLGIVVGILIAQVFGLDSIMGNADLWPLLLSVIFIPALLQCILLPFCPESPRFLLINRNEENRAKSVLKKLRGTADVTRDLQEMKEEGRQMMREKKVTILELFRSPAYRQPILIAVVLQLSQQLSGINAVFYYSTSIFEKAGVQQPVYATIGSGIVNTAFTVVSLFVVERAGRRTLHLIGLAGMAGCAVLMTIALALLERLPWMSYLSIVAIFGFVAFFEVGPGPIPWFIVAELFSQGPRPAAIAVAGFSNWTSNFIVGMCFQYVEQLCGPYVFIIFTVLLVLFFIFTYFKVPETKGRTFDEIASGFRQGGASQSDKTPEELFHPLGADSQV

[2] = target: T1, GLUT1; experiment: [3H]-2-deoxyglucose uptake in L929 fibroblasts; assay type: cell-based

| SMILES | dose-dependent competition of [3H]-2DG uptake in L929 fibroblasts [1] | IC50 [2] [µM] |
| --- | --- | --- |
| OC[C@H]1OC(O)[C@H](O)[C@@H](O)[C@@H]1O (some centres unmarked) [glucose] | glucose reduces 2DG uptake in a dose-dependent manner, and that caffeine adds to the inhibitory effects of glucose | – |
| Cn1c(=O)c2c(ncn2C)n(C)c1=O [caffeine] | – | ~1400 |
